In the data set the target is APP. Description: mouse, dose not given. The following applies: ASO.

HELM strings list units from the 5' end as sugar, base in round brackets, then linkage (d deoxyribose, r ribose, m 2'-O-methyl, p phosphodiester). Strings are as the collection lists them; they lack the last nucleoside at the 3' end of the tested compound. [moe] = 2'-O-(2-methoxyethyl) (MOE); [sp] = phosphorothioate linkage; [m5C] = 5-methylcytosine

Turning to “RNA1{[moe](G)[sp].[moe](T)p.[moe](A)p.[moe]([m5C])p.[moe](T)[sp].d(G)[sp].d(T)[sp].d(T)[sp].d(T)[sp].d([m5C])[sp].d(T)[sp].d(T)[sp].d([m5C])[sp].d(T)[sp].d(T)[sp].[moe]([m5C])p.[moe](A)p.[moe](G)[sp].[moe]([m5C])}$$$$ (last 3' nucleoside missing)”, the 3 h FOB score amounted to 2 score 0-7. Then “RNA1{[moe](G)[sp].[moe](T)p.[moe](A)p.[moe]([m5C])p.[moe](T)[sp].d([m5C])[sp].d(A)[sp].d(T)[sp].d(T)[sp].d(T)[sp].d(T)[sp].d(T)[sp].d(G)[sp].d(T)[sp].d(T)[sp].[moe]([m5C])p.[moe](T)p.[moe](T)[sp].[moe](A)}$$$$ (last 3' nucleoside missing)”, with 0.67 score 0-7; and “RNA1{[moe](G)[sp].[moe](T)p.[moe](G)p.[moe](A)p.[moe](T)[sp].d(T)[sp].d(T)[sp].d([m5C])[sp].d(A)[sp].d([m5C])[sp].d(T)[sp].d(A)[sp].d(A)[sp].d([m5C])[sp].d([m5C])[sp].[moe](G)p.[moe](G)p.[moe]([m5C])[sp].[moe](A)}$$$$ (last 3' nucleoside missing)”, with 2 score 0-7; and “RNA1{[moe](G)[sp].[moe](T)p.[moe](G)p.[moe](A)p.[moe]([m5C])[sp].d(T)[sp].d(T)[sp].d(A)[sp].d(T)[sp].d(A)[sp].d([m5C])[sp].d(T)[sp].d([m5C])[sp].d(A)[sp].d(A)[sp].[moe](T)p.[moe](G)p.[moe](A)[sp].[moe]([m5C])}$$$$ (last 3' nucleoside missing)”, with 0 score 0-7. The same measure for “RNA1{[moe](G)[sp].[moe](T)p.[moe](G)p.[moe](T)p.[moe]([m5C])[sp].d(A)[sp].d(T)[sp].d(A)[sp].d(A)[sp].d([m5C])[sp].d(A)[sp].d(T)[sp].d(T)[sp].d(T)[sp].d(A)[sp].[moe]([m5C])p.[moe](T)p.[moe]([m5C])[sp].[moe](A)}$$$$ (last 3' nucleoside missing)”: 0 score 0-7.

The substance “RNA1{[moe](G)[sp].[moe](T)p.[moe](G)p.[moe]([m5C])p.[moe](T)[sp].d(T)[sp].d(A)[sp].d(T)[sp].d(A)[sp].d(A)[sp].d([m5C])[sp].d(T)[sp].d([m5C])[sp].d(T)[sp].d([m5C])[sp].[moe](A)p.[moe](T)p.[moe](A)[sp].[moe]([m5C])}$$$$ (last 3' nucleoside missing)” had a 3 h FOB score of 1 score 0-7.

For “RNA1{[moe](G)[sp].[moe](T)p.[moe](T)p.[moe](G)p.[moe](A)[sp].d(A)[sp].d(T)[sp].d(T)[sp].d(T)[sp].d([m5C])[sp].d(T)[sp].d(T)[sp].d(A)[sp].d([m5C])[sp].d(A)[sp].[moe]([m5C])p.[moe](T)p.[moe](T)[sp].[moe](T)}$$$$ (last 3' nucleoside missing)”, the 3 h FOB score is 0 score 0-7. Then “RNA1{[moe](G)[sp].[moe](T)p.[moe](T)p.[moe](G)p.[moe](T)[sp].d(A)[sp].d(G)[sp].d(G)[sp].d(A)[sp].d(A)[sp].d([m5C])[sp].d(T)[sp].d([m5C])[sp].d(G)[sp].d(A)[sp].[moe](A)p.[moe]([m5C])p.[moe]([m5C])[sp].[moe](A)}$$$$ (last 3' nucleoside missing)”, with 1 score 0-7; and “RNA1{[moe](G)[sp].[moe](T)p.[moe](T)p.[moe](T)p.[moe](A)[sp].d([m5C])[sp].d([m5C])[sp].d(T)[sp].d(T)[sp].d(T)[sp].d(A)[sp].d(A)[sp].d([m5C])[sp].d(A)[sp].d(T)[sp].[moe](T)p.[moe]([m5C])p.[moe]([m5C])[sp].[moe](T)}$$$$ (last 3' nucleoside missing)”, with 0 score 0-7.

“RNA1{[moe](G)[sp].[moe](T)p.[moe](T)p.[moe](T)p.[moe](A)p.[moe]([m5C])[sp].d([m5C])[sp].d(T)[sp].d(T)[sp].d(T)[sp].d(A)[sp].d(A)[sp].d([m5C])[sp].d(A)[sp].d(T)[sp].d(T)[sp].[moe]([m5C])p.[moe]([m5C])[sp].[moe](T)}$$$$ (last 3' nucleoside missing)” returned a 3 h FOB score of 2.75 score 0-7.

Source of the values: the OligoGym collection.
